Laboratory results from patent US9346812B2, “Substituted pyrrolopyrimidine compounds, compositions thereof, and methods of treatment therewith” (Signal Pharmaceutical LLC, priority 2013, dated 2016).
Like-named read-outs stand apart in the source and are kept apart here.

System: CAL51 cell proliferation
Assay: Cell Titer Glo Proliferation Assay (CAL51)
Type: cell-based, human
Conditions: CAL51 cell proliferation, 72 h, Cell Titer Glo luminescence, read-out: Act. Level
Summary of the method: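 CAL51 triple-negative breast cancer cells in DMEM or RPMI with 10% FBS were treated after overnight culture with serially diluted compound at 0.2% final DMSO. After 72 h, viability was read as CellTiter-Glo luminescence.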

Row | Compound | IC50 (Homo sapiens, CAL-51) | IC50
1 | CNC(=O)c1ccc(Nc2nc(O[C@H]3CC[C@](C)(O)CC3)c3c(-c4ccc5nc(C)oc5c4)c[nH]c3n2)c(OC)c1 [Example 205, 4-(4-((1r,4r)-4-hydroxy-4-methylcyclohexyloxy)-5-(2-methylbenzo[d]oxazol-6-yl)-7H-pyrrolo[2,3-d]pyrimidin-2-ylamino)-3-methoxy-N-methylbenzamide] | < 100 nM | –
2 | CNC(=O)c1ccc(Nc2nc(O[C@H]3CC[C@@](C)(O)CC3)c3c(-c4ccc5nc(C)oc5c4)c[nH]c3n2)c(OC)c1 [Example 206, 4-(4-((1s,4s)-4-hydroxy-4-methylcyclohexyloxy)-5-(2-methylbenzo[d]oxazol-6-yl)-7H-pyrrolo[2,3-d]pyrimidin-2-ylamino)-3-methoxy-N-methylbenzamide] | < 100 nM | –
3 | CNC(=O)c1ccc(Nc2nc(OC3CCOCC3)c3c(-c4ccc(-c5nc(C)c[nH]5)cc4)c[nH]c3n2)c(OC)c1 [Example 207, 3-methoxy-N-methyl-4-(5-(4-(4-methyl-1H-imidazol-2-yl)phenyl)-4-(tetrahydro-2H-pyran-4-yloxy)-7H-pyrrolo[2,3-d]pyrimidin-2-ylamino)benzamide] | < 100 nM | –
4 | CNC(=O)c1ccc(Nc2nc(O[C@H]3CCOC3)c3c(-c4cnn(C)c4)c[nH]c3n2)c(C(C)C)c1 [Example 208, (S)-3-isopropyl-N-methyl-4-(5-(1-methyl-1H-pyrazol-4-yl)-4-(tetahydrofuran-3-yloxy)-7H-pyrrolo[2,3-d]pyrimidin-2-ylamino)benzamide] | 100 to 400 nM | –
5 | CNC(=O)c1ccc(Nc2nc(O[C@H]3CCOC3)c3c(-c4ccc5nc(C)oc5c4)c[nH]c3n2)c(C(C)C)c1 [Example 209, (S)-3-isopropyl-N-methyl-4-(5-(2-methylbenzo[d]oxazol-6-yl)-4-(tetrahydrofuran-3-yloxy)-7H-pyrrolo[2,3-d]pyrimidin-2-ylamino)benzamide] | 1000 to 10000 nM | –
6 | CNC(=O)c1ccc(Nc2nc(NC3CCOCC3)c3c(-c4cnn(C)c4)c[nH]c3n2)c(OC)c1 [Example 210, 3-methoxy-N-methyl-4-(5-(1-methyl-1H-pyrazol-4-yl)-4-(tetrahydro-2H-pyran-4-ylamino)-7H-pyrrolo[2,3-d]pyrimidin-2-ylamino)benzamide] | < 100 nM | –
7 | CNC(=O)c1ccc(Nc2nc(NC3CC3)c3c(-c4cnn(C)c4)c[nH]c3n2)c(OC)c1 [Example 211, 4-(4-(cyclopropylamino)-5-(1-methyl-1H-pyrazol-4-yl)-7H-pyrrolo[2,3-d]pyrimidin-2-ylamino)-3-methoxy-N-methylbenzamide] | 100 to 400 nM | –
8 | CNC(=O)c1ccc(Nc2nc(NC3CC3)c3c(-c4ccc5nc(C)oc5c4)c[nH]c3n2)c(OC)c1 [Example 212, 4-(4-(cyclopropylamino)-5-(2-methylbenzo[d]oxazol-6-yl)-7H-pyrrolo[2,3-d]pyrimidin-2-ylamino)-3-methoxy-N-methylbenzamide] | 100 to 400 nM | –
9 | COc1cc(C(=O)NCCO)ccc1Nc1nc(OC2CCOCC2)c2c(-c3ccc4nc(C)oc4c3)c[nH]c2n1 [Example 213, N-(2-hydroxyethyl)-3-methoxy-4-(5-(2-methylbenzo[d]oxazol-6-yl)-4-(tetrahydro-2H-pyran-4-yloxy)-7H-pyrrolo[2,3-d]pyrimidin-2-ylamino)benzamide] | < 100 nM | –
10 | COc1cc(C(=O)N[C@H](C)CO)ccc1Nc1nc(OC2CCCC2)c2c(-c3ccc4nc(C)oc4c3)c[nH]c2n1 [Example 214, (R)-4-(4-(cyclopentyloxy)-5-(2-methylbenzo[d]oxazol-6-yl)-7H-pyrrolo[2,3-d]pyrimidin-2-ylamino)-N-(1-hydroxypropan-2-yl)-3-methoxybenzamide] | < 100 nM | –
11 | COc1cc(C(=O)N[C@@H](C)CO)ccc1Nc1nc(OC2CCCC2)c2c(-c3ccc4nc(C)oc4c3)c[nH]c2n1 [Example 215, (S)-4-(4-(cyclopentyloxy)-5-(2-methylbenzo[d]oxazol-6-yl)-7H-pyrrolo[2,3-d]pyrimidin-2-ylamino)-N-(1-hydroxypropan-2-yl)-3-methoxybenzamide] | < 100 nM | –
12 | COc1cc(C(=O)NCCO)ccc1Nc1nc(OC2CC2)c2c(-c3ccc4nc(C)oc4c3)c[nH]c2n1 [Example 216, 4-(4-cyclopropoxy-5-(2-methylbenzo[d]oxazol-6-yl)-7H-pyrrolo[2,3-d]pyrimidin-2-ylamino)-N-(2-hydroxyethyl)-3-methoxybenzamide] | < 100 nM | –
13 | COc1cc(C(=O)NCCO)ccc1Nc1nc(OC2CC2)c2c(-c3cnn(C)c3)c[nH]c2n1 [Example 217, 4-(4-cyclopropoxy-5-(1-methyl-1H-pyrazol-4-yl)-7H-pyrrolo[2,3-d]pyrimidin-2-ylamino)-N-(2-hydroxyethyl)-3-methoxybenzamide] | 100 to 400 nM | –
14 | CNC(=O)c1ccc(Nc2nc(OC3CC3)c3c(-c4ccn(C)n4)c[nH]c3n2)c(OC)c1 [Example 218, 4-(4-cyclopropoxy-5-(1-methyl-1H-pyrazol-3-yl)-7H-pyrrolo[2,3-d]pyrimidin-2-ylamino)-3-methoxy-N-methylbenzamide] | – | 1000 to 10000 nM
15 | CNS(=O)(=O)c1ccc(Nc2nc(OC3CCOCC3)c3c(-c4ccc5nc(C)oc5c4)c[nH]c3n2)c(OC)c1 [Example 219, 3-methoxy-N-methyl-4-(5-(2-methylbenzo[d]oxazol-6-yl)-4-(tetrahydro-2H-pyran-4-yloxy)-7H-pyrrolo[2,3-d]pyrimidin-2-ylamino)benzenesulfonamide] | 100 to 400 nM | –
16 | CNC(=O)c1ccc(Nc2nc(OC(C)C)c3c(-c4ccn(C)n4)c[nH]c3n2)c(OC)c1 [Example 220, 4-(4-isopropoxy-5-(1-methyl-1H-pyrazol-3-yl)-7H-pyrrolo[2,3-d]pyrimidin-2-ylamino)-3-methoxy-N-methylbenzamide] | 1000 to 10000 nM | –
17 | COCCOc1nc(Nc2ccc(C(=O)N(C)C)cc2OC)nc2[nH]cc(-c3cnn(C)c3)c12 [Example 221, 3-methoxy-4-(4-(2-methoxyethoxy)-5-(1-methyl-1H-pyrazol-4-yl)-7H-pyrrolo[2,3-d]pyrimidin-2-ylamino)-N,N-dimethylbenzamide] | < 100 nM | –
18 | COc1cc(C(=O)N(C)C)ccc1Nc1nc(O[C@@H]2CCOC2)c2c(-c3ccc4nc(C)oc4c3)c[nH]c2n1 [Example 222, (R)-3-methoxy-N,N-dimethyl-4-(5-(2-methylbenzo[d]oxazol-6-yl)-4-(tetrahydrofuran-3-yloxy)-7H-pyrrolo[2,3-d]pyrimidin-2-ylamino)benzamide] | < 100 nM | –
19 | CNC(=O)c1ccc(Nc2nc(OC3CCOCC3)c3c(-c4ccc5nc(C)sc5c4)c[nH]c3n2)c(OC)c1 [Example 223, 3-methoxy-N-methyl-4-(5-(2-methylbenzo[d]thiazol-6-yl)-4-(tetrahydro-2H-pyran-4-yloxy)-7H-pyrrolo[2,3-d]pyrimidin-2-ylamino)benzamide] | < 100 nM | –
20 | COc1cc(C(=O)NC(C)(C)C)ccc1Nc1nc(OC2CCCC2)c2c(-c3ccc4nc(C)oc4c3)c[nH]c2n1 [Example 224, N-tert-butyl-4-(4-(cyclopentyloxy)-5-(2-methylbenzo[d]oxazol-6-yl)-7H-pyrrolo[2,3-d]pyrimidin-2-ylamino)-3-methoxybenzamide] | 100 to 400 nM | –
21 | CNC(=O)c1ccc(Nc2nc(O[C@H]3CCOC3)c3c(-c4ccnn4C)c[nH]c3n2)c(C(C)C)c1 [Example 225, (S)-3-isopropyl-N-methyl-4-(5-(1-methyl-1H-pyrazol-5-yl)-4-(tetrahydrofuran-3-yloxy)-7H-pyrrolo[2,3-d]pyrimidin-2-ylamino)benzamide] | 1000 to 10000 nM | –
22 | CNC(=O)c1ccc(Nc2nc(OC(C)C)c3c(-c4ccnn4C)c[nH]c3n2)c(OC)c1 [Example 226, 4-(4-isopropoxy-5-(1-methyl-1H-pyrazol-5-yl)-7H-pyrrolo[2,3-d]pyrimidin-2-ylamino)-3-methoxy-N-methylbenzamide] | 1000 to 10000 nM | –
23 | COc1cc(-c2cnn(C)c2)ccc1Nc1nc(OC2CCCC2)c2c(-c3ccc4nc(C)oc4c3)c[nH]c2n1 [Example 227, 4-(cyclopentyloxy)-N-(2-methoxy-4-(1-methyl-1H-pyrazol-4-yl)phenyl)-5-(2-methylbenzo[d]oxazol-6-yl)-7H-pyrrolo[2,3-d] pyrimidin-2-amine] | 100 to 400 nM | –
24 | COc1cc(-n2cccn2)ccc1Nc1nc(OC2CCCC2)c2c(-c3ccc4nc(C)oc4c3)c[nH]c2n1 [Example 228, 4-(cyclopentyloxy)-N-(2-methoxy-4-(1H-pyrazol-1-yl)phenyl)-5-(2-methylbenzo[d]oxazol-6-yl)-7H-pyrrolo[2,3-d]pyrimidin-2-amine] | 100 to 400 nM | –
25 | COc1cc(C(=O)NC2CCCC2)ccc1Nc1nc(OC2CCCC2)c2c(-c3ccc4nc(C)oc4c3)c[nH]c2n1 [Example 229, N-cyclopentyl-4-(4-(cyclopentyl-oxy)-5-(2-methylbenzo[d]oxazol-6-yl)-7H-pyrrolo[2,3-d]pyrimidin-2-ylamino)-3-methoxybenzamide] | 400 to 1000 nM | –
26 | COc1cc(C(=O)NC[C@@H](C)O)ccc1Nc1nc(OC2CCCC2)c2c(-c3ccc4nc(C)oc4c3)c[nH]c2n1 [Example 230, (R)-4-(4-(cyclopentyloxy)-5-(2-methylbenzo[d]oxazol-6-yl)-7H-pyrrolo[2,3-d]pyrimidin-2-ylamino)-N-(2-hydroxypropyl)-3-methoxybenzamide] | 100 to 400 nM | –
27 | COc1cc(C(=O)N2CCC(O)CC2)ccc1Nc1nc(OC2CCCC2)c2c(-c3ccc4nc(C)oc4c3)c[nH]c2n1 [Example 231, (4-(4-(cyclopentyloxy)-5-(2-methylbenzo[d]oxazol-6-yl)-7H-pyrrolo[2,3-d]pyrimidin-2-ylamino)-3-methoxyphenyl)(4-hydroxy-piperidin-1-yl)methanone] | < 100 nM | –
28 | COc1cc(C(=O)NCCCO)ccc1Nc1nc(OC2CCCC2)c2c(-c3ccc4nc(C)oc4c3)c[nH]c2n1 [Example 232, 4-(4-(cyclopentyloxy)-5-(2-methylbenzo[d]oxazol-6-yl)-7H-pyrrolo[2,3-d]pyrimidin-2-ylamino)-N-(3-hydroxypropyl)-3-methoxybenzamide] | < 100 nM | –
